What is called EC50 is the concentration at which the effect is half-maximal.

The structures appear in SMILES notation.

We go through 35 molecules from patent publication US7968570B2, “Isoindolone compounds and their use as metabotropic glutamate receptor potentiators” (AstraZeneca AB, priority 2004, dated 2011).

In this assay the target is T1, human mGluR2 receptor (Homo sapiens, UniProt Q14416).
T1 construct: expressed in transfected cells
T1 sequence (Q14416 19-872): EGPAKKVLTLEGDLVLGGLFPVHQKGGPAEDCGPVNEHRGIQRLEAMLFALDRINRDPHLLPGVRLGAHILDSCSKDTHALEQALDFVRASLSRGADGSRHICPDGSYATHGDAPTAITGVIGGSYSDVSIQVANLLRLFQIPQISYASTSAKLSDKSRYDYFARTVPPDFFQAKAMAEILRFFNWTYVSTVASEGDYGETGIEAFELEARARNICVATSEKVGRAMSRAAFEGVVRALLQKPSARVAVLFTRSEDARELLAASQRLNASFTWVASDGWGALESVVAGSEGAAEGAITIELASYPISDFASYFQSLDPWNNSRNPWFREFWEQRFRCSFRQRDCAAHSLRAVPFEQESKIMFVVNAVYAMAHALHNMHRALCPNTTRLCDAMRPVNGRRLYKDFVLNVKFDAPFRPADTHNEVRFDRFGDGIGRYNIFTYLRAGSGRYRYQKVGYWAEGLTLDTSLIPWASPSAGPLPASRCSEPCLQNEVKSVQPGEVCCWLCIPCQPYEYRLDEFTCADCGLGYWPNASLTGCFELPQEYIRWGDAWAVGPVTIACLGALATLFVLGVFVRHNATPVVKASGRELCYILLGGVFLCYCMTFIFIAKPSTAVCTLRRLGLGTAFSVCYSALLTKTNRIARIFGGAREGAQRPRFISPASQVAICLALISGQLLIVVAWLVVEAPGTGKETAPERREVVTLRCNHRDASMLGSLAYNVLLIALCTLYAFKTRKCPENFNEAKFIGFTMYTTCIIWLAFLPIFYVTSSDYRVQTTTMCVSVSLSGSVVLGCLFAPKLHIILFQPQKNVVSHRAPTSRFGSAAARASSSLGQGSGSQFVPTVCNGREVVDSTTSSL
Description: [35S]-GTPγS binding assay of mGluR2 receptor activation. The class given is biochemical. The note with it: membranes from CHO cells stably expressing human mGluR2; 1 μM glutamate. The procedure:
A [^35S]-GTPγS binding assay was used to functionally assay mGluR2 receptor activation. The allosteric activator activity of compounds at the human mGluR2 receptor were measured using a [^35S]-GTPγS binding assay with membranes prepared from CHO cells which stably express the human mGluR2. The assay is based upon the principle that agonists bind to G-protein coupled receptors to stimulate GDP-GTP exchange at the G-protein. Since [^35S]-GTPγS is a non-hydrolyzable GTP analog, it can be used to provide an index of GDP-GTP exchange and, thus, receptor activation. The GTPγS binding assay therefore provides a quantitative measure of receptor activation.
Membranes were prepared from CHO cells stably transfected with human mGluR2. Membranes (30 μg protein) were incubated with test compound (3 nM to 300 μM) for 15 minutes at room temperature prior to the addition of 1 μM glutamate, and incubated for 30 min at 30° C. in 500 μl assay buffer (20 mM HEPES, 100 mM NaCl, 10 mM MgCl2), containing 30 μM GDP and 0.1 nM [^35S]-GTPγS (1250 Ci/mmol). Reactions were carried out in triplicate in 2 ml polypropylene 96-well plates. Reactions were terminated by vacuum filtration using a Packard 96-well harvester and Unifilter-96, GF/B filter microplates. The filter plates were washed 4×1.5 ml with ice-cold wash buffer (10 mM sodium phosphate buffer, pH 7.4). The filter plates were dried and 35 μl of scintillation fluid (Microscint 20) was added to each well. The amount of radioactivity bound was determined by counting plates on the Packard TopCount. Data was analyzed using GraphPad Prism, and EC50 and Emax values (relative to the maximum glutamate effect) were calculated using non-linear regression.
On the technique in general: GTPγS resists hydrolysis and so accumulates on activated G proteins.
In turn, `COc1cc(C2=CCN(C(=O)OC(C)(C)C)CC2)cc2c1C(=O)N(Cc1ccc(OC(F)(F)F)cc1)C2` [Example 85, 4-[7-Methoxy-1-oxo-2-(4-trifluoromethoxy-benzyl)-2,3-dihydro-1H-isoindol-5-yl]-3,6-dihydro-2H-pyridine-1-carboxylic acid tert-butyl ester] showed an EC50 of 0.08 µM. This lies in the double-digit nanomolar range.
The result for `Cc1cc(-c2ccc(CN(C)C)cc2)cc2c1C(=O)N(Cc1ccc(OC(F)(F)F)cc1)C2` [Example 86, 5-(4-Dimethylamino-methyl-phenyl)-7-methyl-2-(4-trifluoromethoxy-benzyl)-2,3-dihydro-isoindol-1-one] reads 0.06 µM; that for `Cc1cc(-c2cccc(CN(C)C)c2)cc2c1C(=O)N(Cc1ccc(OC(F)(F)F)cc1)C2` [Example 87, 5-(3-Dimethylamino-methyl-phenyl)-7-methyl-2-(4-trifluoromethoxy-benzyl)-2,3-dihydro-isoindol-1-one], 0.29 µM.
The result for `Cc1ccc(CN2Cc3cc(C4=CCN(C)CC4)ccc3C2=O)cc1` [Example 89] reads 9.72 µM; that for `COc1cc(C2=CCN(C)CC2)cc2c1C(=O)N(Cc1ccc(OC(F)(F)F)cc1)C2` [Example 90, 7-Methoxy-5-(1-methyl-1,2,3,6-tetrahydro-pyridin-4-yl)-2-(4-trifluoromethoxy-benzyl)-2,3-dihydro-isoindol-1-one], 3.82 µM; that for `COc1cc(C2=CCNCC2)cc2c1C(=O)N(Cc1ccc(OC(F)(F)F)cc1)C2` [Example 92], 1.36 µM.
Regarding `Cc1ccc(CN2Cc3cc(-c4cccnc4)ccc3C2=O)cc1` [Example 94, 2-(4-Methylbenzyl)-5-pyridin-3-yl-2,3-dihydroisondol-1-one], the midpoint of the response, the EC50, lay at 2.76 µM.
The result for `Cc1cc(-c2cccnc2)cc2c1C(=O)N(Cc1ccc(OC(F)(F)F)cc1)C2` [Example 95, 7-Methyl-5-pyridin-3-yl-2-(trifluoromethoxybenzyl)-2,3-dihydroisoindol-1-one] reads 0.05 µM; that for `Cc1cc(-c2ccncc2)cc2c1C(=O)N(Cc1ccc(OC(F)(F)F)cc1)C2` [Example 96, 7-Methyl-5-pyridin-4-yl-2-(trifluoromethoxybenzyl)-2,3-dihydroisoindol-1-one], 0.13 µM.
The result for `Cc1cc(-c2ccncc2)cc2c1C(=O)N(Cc1ccc(Cl)cc1)C2` [Example 97, 2-(4-chlorobenzyl)-7-methyl-5-pyridin-4-yl-2,3-dihydroisoindol-1-one] reads 0.3 µM; that for `Cc1cc(-c2cccnc2)cc2c1C(=O)N(Cc1ccc(Cl)cc1)C2` [Example 98, 2-(4-chlorobenzyl)-7-methyl-5-pyridin-3-yl-2,3-dihydroisoindol-1-one], 0.1 µM; that for `COc1cc(-c2ccncc2)cc2c1C(=O)N(Cc1ccc(OC(F)(F)F)cc1)C2` [Example 99, 7-Methoxy-5-pyridin-4-yl-2-(4-trifluoromethoxy-benzyl)-2,3-dihydroisoindol-1-one], 0.4 µM.
The result for `COc1cc(-c2cccnc2)cc2c1C(=O)N(Cc1ccc(OC(F)(F)F)cc1)C2` [Example 100, 7-Methoxy-5-pyridin-3-yl-2-(4-trifluoromethoxy-benzyl)-2,3-dihydroisoindol-1-one] reads 0.22 µM; that for `COc1cc(-c2cccnc2)cc2c1C(=O)N(Cc1ccc(Cl)cc1)C2` [Example 101, 2-(4-Chloro-benzyl)-7-methoxy-5-pyridin-3-yl-2,3-dihydro-isoindol-1-one], 1.16 µM.
In turn, `O=C1c2c(Cl)cc(-c3ccncc3)cc2CN1Cc1ccc(OC(F)(F)F)cc1` [Example 102, 7-Chloro-5-pyridin-4-yl-2-(4-trifluoromethoxy-benzyl)-2,3-dihydro-isoindol-1-one] registered an EC50 of 0.09 µM.
On to `Cc1cc(-c2ccncc2)cc2c1C(=O)N(Cc1ccc(Oc3ccccc3)cc1)C2` [Example 103, 7-Methyl-2-(4-phenoxy-benzyl)-5-pyridin-4-yl-2,3-dihydro-isoindol-1-one], for which the 50% effective concentration (EC50) was 0.04 µM.
The result for `Cc1cc(-c2cccnc2)cc2c1C(=O)N(Cc1ccc(Oc3ccccc3)cc1)C2` [Example 104, 7-Methyl-2-(4-phenoxy-benzyl)-5-pyridin-3-yl-2,3-dihydro-isoindol-1-one] reads 0.05 µM; that for `O=C1c2c(Cl)cc(-c3cccnc3)cc2CN1Cc1ccc(OC(F)(F)F)cc1` [Example 105, 7-Chloro-5-pyridin-3-yl-2-(4-trifluoromethoxy-benzyl)-2,3-dihydro-isoindol-1-one], 0.05 µM.
The result for `O=C1c2c(Cl)cc(-c3ccncc3)cc2CN1Cc1ccc(Cl)cc1` [Example 106, 7-Chloro-2-(4-chloro-benzyl)-5-pyridin-4-yl-2,3-dihydro-isoindol-1-one] reads 0.13 µM.
To `O=C1c2c(Cl)cc(-c3cccnc3)cc2CN1Cc1ccc(Cl)cc1` [Example 107, 7-Chloro-2-(4-chloro-benzyl)-5-pyridin-3-yl-2,3-dihydro-isoindol-1-one] belongs 0.36 µM.
`O=Cc1cnccc1-c1cc(Cl)c2c(c1)CN(Cc1ccc(Cl)cc1)C2=O` [Example 108, 4-[7-Chloro-2-(4-chloro-benzyl)-1-oxo-2,3-dihydro-1H-isoindol-5-yl]-pyridine-3-carbaldehyde] returned an EC50 of 0.46 µM.
To `Cc1ccc(CN2Cc3cc(NC4CCN(C(=O)OC(C)(C)C)C4)ccc3C2=O)cc1` (centres unmarked) [Example 110, 3-[2-(4-Methyl-benzyl)-1-oxo-2,3-dihydro-1H-isoindol-5-ylamino]-pyrrolidine-1-carboxylic acid tert-butyl ester] belongs 2.52 µM; to `Cc1cc(N2CCN3CCCC3C2)cc2c1C(=O)N(Cc1ccc(OC(F)(F)F)cc1)C2` (centres unmarked) [Example 111, 5- (Hexahydropyrrolo [1,2-a]pyrazin-2-yl)-7-methyl-2-(4-trifluoromethoxybenzyl)-2,3-dihydroisoindol-1-one], 0.6 µM.
To `CCN1CCN(c2cc(C)c3c(c2)CN(Cc2ccc(OC(F)(F)F)cc2)C3=O)CC1` [Example 112, 5-(4-Ethylpiperazin-1-yl)-7-methyl-2-(4-trifluoromethoxy-benzyl)-2,3-dihydroisoindol-1-one] belongs 0.68 µM; to `Cc1cc(N2CCCN(C)CC2)cc2c1C(=O)N(Cc1ccc(OC(F)(F)F)cc1)C2` [Example 113, 7-Methyl-5-(4-methyl-[1,4]-diazepan-1-yl)-2-(4-trifluoromethoxy-benzyl)-2,3-dihydroisoindol-1-one], 1.21 µM; to `Cc1cc(N2CCN(C)CC2)cc2c1C(=O)N(Cc1ccc(Oc3ccccc3)cc1)C2` [Example 114, 7-Methyl-5-(4-methylpiperazin-1-yl)-2-(4-phenoxybenzyl)-2,3-dihydroisoindol-1-one], 0.28 µM.
`Cc1cc(N2CCC(N(C)C)C2)cc2c1C(=O)N(Cc1ccc(OC(F)(F)F)cc1)C2` (centres unmarked) [Example 115, 5-(3-dimethylamino-pyrollidin-1-yl)-7-methyl-2-(4-trifluoromethoxy-benzyl)-2,3-dihydroisoindol-1-one] yielded an EC50 of 0.3 µM.
`Cc1cc(N2CCN3CCCC3C2)cc2c1C(=O)N(Cc1ccc(Oc3ccccc3)cc1)C2` (centres unmarked) [Example 116, 5-(Hexahydro-pyrrolo[1,2-a]pyrazin-2-yl)-7-methyl-2-(4-phenoxybenzyl)-2,3-dihydroisoindol-1-one]: the EC50 amounted to 0.18 µM.
To `Cc1cc(N2CCN(C)CC2)cc2c1C(=O)N(Cc1ccc(Cl)cc1)C2` [Example 117, 2-(4-chlorobenzyl)-7-methyl-5-(4-methylpiperazin-1-yl)-2,3-di-hydroisoindol-1-one] belongs 1.45 µM; to `Cc1cc(N2CCN3CCCC3C2)cc2c1C(=O)N(Cc1ccc(Cl)cc1)C2` (centres unmarked) [Example 118, 2-(4-Chlorobenzyl)-5-(hexahydropyrrolo [1,2-a]pyrazin-2-yl)-7-methyl-2,3-dihydroisoindol-1-one], 0.81 µM.
In turn, `Cc1cc(N2CCC(N(C)C)C2)cc2c1C(=O)N(Cc1ccc(Cl)cc1)C2` (centres unmarked) [Example 119, 2-(4-chlorobenzyl)-5-(3-dimethylamino-pyrollidin-1-yl)-7-methyl-2,3-dihydroisoindol-1-one] showed an EC50 of 0.42 µM.
The result for `Cc1cc(N2CCN3CCCCC3C2)cc2c1C(=O)N(Cc1ccc(Cl)cc1)C2` (centres unmarked) [Example 121] reads 1.23 µM.
The molecule `Cc1cc(N2CCCN3CCCCC3C2)cc2c1C(=O)N(Cc1ccc(OC(F)(F)F)cc1)C2` (centres unmarked) [Example 122, 7-Methyl-5-(octahydropyrido [1,2-a][1,4]diazepin-2-yl)-2-(4-trifluoromethoxy-benzyl)-2,3-dihydroisoindol-1-one] came in with an EC50 of 3.55 µM.
The result for `Cc1cc(N2CCNCC2)cc2c1C(=O)N(Cc1ccc(OC(F)(F)F)cc1)C2` [Example 123, 7-Methyl-5-piperazin-1-yl-2-(4-trifluoromethoxy-benzyl)-2,3-dihydroisoindol-1-one] reads 3.85 µM.
Turning to `COc1cc(N2CCN3CCCC3C2)cc2c1C(=O)N(Cc1ccc(OC(F)(F)F)cc1)C2` (centres unmarked) [Example 124, 5- (Hexahydropyrrolo [1,2-a]pyrazin-2-yl)-7-methoxy-2-(4-trifluoromethoxy-benzyl)-2,3-dihydroisoindol-1-one], the 50% effective concentration (EC50) was 1.91 µM.
